This passage reports IC50 results from BindingDB's records for doi:10.1016/s0960-894x(99)00486-2 (Dupont Pharmaceuticals, 1999).

Bounds are passed on as bounds.

The experiment concerns the target T1, Gag-Pol polyprotein [588-1027]/[588-1147] (Human immunodeficiency virus 1, UniProt P04585).
T1 construct: 588-1027; 588-1147
Briefly: HIV-1 RT Assay. As to conditions: pH 8.2; 37 °C. An excerpt:
The IC50 of reverse transcriptase is the concentration that inhibits 50% of recombinant HIV-1 RT RNA-directed DNA polymerase activity in vitro.
`O=C1Nc2c(cc(F)c(F)c2F)C(C#CC2CC2)(C(F)(F)F)O1` (stereo not drawn) [4-(2-cyclopropylethynyl)-6,7,8-trifluoro-4-(trifluoromethyl)-2,4-dihydro-1H-3,1-benzoxazin-2-one]: the concentration for half-maximal inhibition (IC50) was over 2 µM.
The same measure for `O=C1Nc2ccc(-c3ccccc3)cc2C(C#CC2CC2)(C(F)(F)F)O1` (stereo not drawn) [4-(2-cyclopropylethynyl)-6-phenyl-4-(trifluoromethyl)-2,4-dihydro-1H-3,1-benzoxazin-2-one]: over 2 µM; for `O=C1Nc2c(Cl)cc(Cl)cc2C(C#CC2CC2)(C(F)(F)F)O1` (stereo not drawn) [6,8-dichloro-4-(2-cyclopropylethynyl)-4-(trifluoromethyl)-2,4-dihydro-1H-3,1-benzoxazin-2-one]: over 2 µM.
